What was measured:
[1] = excess molar enthalpy (molar enthalpy of mixing); xn = mol fraction of the nth substance listed; details: 298.15 K, 101.33 kPa, Liquid
[2] = xn = mol fraction of the nth substance listed; details: 298.15 K, 101.33 kPa, Liquid

ClCCCCCl [1,4-dichlorobutane] + CCOC(C)=O
Details	excess molar enthalpy [kJ/mol]	mass density [kg/m3]
[1], x2 = 0.0692	-0.0084	–
[1], x2 = 0.1414	-0.0198	–
[1], x2 = 0.2133	-0.0355	–
[1], x2 = 0.2818	-0.0549	–
[1], x2 = 0.347	-0.0759	–
[1], x2 = 0.4035	-0.0968	–
[1], x2 = 0.4514	-0.115	–
[1], x2 = 0.4919	-0.129	–
[1], x2 = 0.5264	-0.142	–
[1], x2 = 0.5571	-0.152	–
[1], x2 = 0.5836	-0.161	–
[1], x2 = 0.6072	-0.169	–
[1], x2 = 0.6278	-0.173	–
[1], x2 = 0.6525	-0.177	–
[1], x2 = 0.7106	-0.163	–
[1], x2 = 0.7719	-0.144	–
[1], x2 = 0.8337	-0.115	–
[1], x2 = 0.8915	-0.0806	–
[1], x2 = 0.9475	-0.0417	–
[2], x2 = 0.0693	–	1118.08
[2], x2 = 0.1314	–	1104.46
[2], x2 = 0.1955	–	1090.4
[2], x2 = 0.2579	–	1076.44
[2], x2 = 0.3205	–	1062.24
[2], x2 = 0.3812	–	1048.26
[2], x2 = 0.442	–	1034.12
[2], x2 = 0.5019	–	1019.95
[2], x2 = 0.5602	–	1006.01
[2], x2 = 0.6172	–	992.21
[2], x2 = 0.6757	–	977.84
[2], x2 = 0.7842	–	950.68
[2], x2 = 0.8386	–	936.74
[2], x2 = 0.8929	–	922.7
[2], x2 = 0.9453	–	908.9

ClCCCCCl [1,4-dichlorobutane] + CCOC=O
[2]
Details	mass density [kg/m3]
x2 = 0.0818	1119.67
x2 = 0.1583	1106.59
x2 = 0.2305	1093.6
x2 = 0.2967	1081.3
x2 = 0.3635	1068.33
x2 = 0.4271	1055.54
x2 = 0.491	1042.19
x2 = 0.6081	1016.39
x2 = 0.6615	1003.97
x2 = 0.7146	991.26
x2 = 0.7671	978.22
x2 = 0.816	965.61
x2 = 0.8633	952.97
x2 = 0.91	940.24
x2 = 0.9551	927.47

ClCCCCCCl [1,5-dichloropentane] + CCOC(=O)CC
[2]
Details	mass density [kg/m3]
x2 = 0.0734	1081.12
x2 = 0.129	1070.38
x2 = 0.1956	1057.38
x2 = 0.2575	1045.16
x2 = 0.3202	1032.63
x2 = 0.4361	1008.96
x2 = 0.5001	995.63
x2 = 0.5582	983.34
x2 = 0.6155	971.03
x2 = 0.6735	958.42
x2 = 0.7283	946.34
x2 = 0.785	933.66
x2 = 0.8394	921.33
x2 = 0.8926	909.15
x2 = 0.9451	896.94

ClCCCCCCl [1,5-dichloropentane] + CCOC(C)=O
[2]
Details	mass density [kg/m3]
x2 = 0.078	1082.84
x2 = 0.1498	1071.08
x2 = 0.2187	1059.41
x2 = 0.2869	1047.48
x2 = 0.3508	1035.92
x2 = 0.4146	1024.01
x2 = 0.5355	1000.44
x2 = 0.5943	988.46
x2 = 0.6527	976.18
x2 = 0.7039	965.12
x2 = 0.7557	953.57
x2 = 0.8066	941.94
x2 = 0.8572	930.03
x2 = 0.9059	918.17
x2 = 0.9527	906.46

ClCCCCCCl [1,5-dichloropentane] + CCOC=O
[2]
Details	mass density [kg/m3]
x2 = 0.0925	1084.33
x2 = 0.173	1074.06
x2 = 0.2529	1063.2
x2 = 0.3276	1052.35
x2 = 0.3957	1041.79
x2 = 0.4618	1031.02
x2 = 0.5249	1020.19
x2 = 0.5835	1009.55
x2 = 0.6395	998.87
x2 = 0.6917	988.42
x2 = 0.7415	977.92
x2 = 0.7896	967.31
x2 = 0.836	956.62
x2 = 0.8791	946.24
x2 = 0.9211	935.6
x2 = 0.9595	925.4

ClCCCCCCCl [1,6-dichlorohexane] + CCOC(=O)CC
[2]
Details	mass density [kg/m3]
x2 = 0.0733	1053.16
x2 = 0.144	1042.66
x2 = 0.2117	1032.32
x2 = 0.2775	1021.98
x2 = 0.3418	1011.56
x2 = 0.4104	1000.12
x2 = 0.5264	979
x2 = 0.5884	968.62
x2 = 0.7491	937.72
x2 = 0.8052	926.3
x2 = 0.8547	915.96
x2 = 0.905	905.21
x2 = 0.9513	894.99

ClCCCCCCCl [1,6-dichlorohexane] + CCOC=O
[2]
Details	mass density [kg/m3]
x2 = 0.1021	1054.55
x2 = 0.1921	1045.86
x2 = 0.2781	1036.7
x2 = 0.357	1027.68
x2 = 0.4266	1019.06
x2 = 0.4923	1010.37
x2 = 0.5555	1001.35
x2 = 0.6677	983.71
x2 = 0.7169	975.18
x2 = 0.7649	966.4
x2 = 0.8091	957.78
x2 = 0.8515	949.08
x2 = 0.8915	940.41
x2 = 0.929	931.82
x2 = 0.9647	923.23

CCOC=O [ethyl methanoate] + ClCCCl
[2]
Details	mass density [kg/m3]
x1 = 0.0604	1224.56
x1 = 0.1183	1204.73
x1 = 0.175	1185.45
x1 = 0.2911	1146.17
x1 = 0.3483	1126.98
x1 = 0.4068	1107.45
x1 = 0.4649	1088.21
x1 = 0.5246	1068.52
x1 = 0.5831	1049.26
x1 = 0.6432	1029.61
x1 = 0.7012	1010.71
x1 = 0.758	992.23
x1 = 0.817	973.15
x1 = 0.8778	953.5
x1 = 0.9362	934.65

CCOC(=O)CC [ethyl propanoate] + ClCCCl
[2]
Details	mass density [kg/m3]
x1 = 0.0458	1221.49
x1 = 0.0867	1201.01
x1 = 0.131	1179.33
x1 = 0.1761	1158.4
x1 = 0.225	1136.63
x1 = 0.2733	1116.14
x1 = 0.3272	1094.1
x1 = 0.3811	1073.16
x1 = 0.4371	1052.35
x1 = 0.4963	1031.27
x1 = 0.5583	1010.27
x1 = 0.6235	989.23
x1 = 0.69	968.72
x1 = 0.7598	948.13
x1 = 0.835	927.04
x1 = 0.9131	906.11

— the NIST ThermoML archive (doi:10.1016/j.jct.2005.03.020)
